# Where a name gives a salt, the structure may show the parent alone.
# Assays:
# [1] = Stability test of crystal samples placed open in the air (illumination, heating, humidity), HPLC analysis; format: physicochemical; details: for HPLC analysis result, 60° C.: heating 60° C.; for HPLC analysis result, 60° C. / HPLC analysis result, RH90% / HPLC analysis result, Light: open in air; for HPLC analysis result, RH90%: humidity RH 90%; for HPLC analysis result, Light: illumination 4500 Lux
# Description: The stability investigation of different Ivabradine hydrochloride crystal form: three different solvents crystallization of samples were obtained in turn according to the method of example 4 except that Ivabradine sulfate is substituted with Ivabradine hydrochloride and ethanol is substituted with acetonitrile, ethyl acetate, acetone.
# Moreover, α-form crystal samples can be obtained using toluene, N-methyl pyrrole as crystallization solvents according to the method disclosed in CN1583341A.
# The four samples obtained above and the form I crystal of Ivabradine sulfate prepared in example 1 were placed opening in the air to test the stability in various conditions including illumination (4500 Lux), heating (60° C.), humidity (RH 90%).
# [2] = pH of the Ivabradine sulfate aqueous solution; format: physicochemical; details: C=1%
# Method: (§1) 4.3 g of […] was dissolved in 100 ml of acetone, then 30 ml of acetone containing 1 g of sulfuric acid was added. The obtained mixture was stirred and white crystals were precipitated from the reaction solution. The resulting precipitate was collected by filtration, washed with acetone and then dried at 60° C. in vacuum for 3 hours to obtain 4.8 g of Ivabradine sulfate. Melting point was determined by capillary crystalline approach at 156˜158° C. Water content is 0.8%. The pH of the Ivabradine sulfate aqueous is about 1.8 (C=1%). Yield: 90.5%.
# as §1, with “containing 0.4” for “containing 1”, “obtain 1.2” for “obtain 4.8”, “Yield: 55.5%. It is form I crystal of Ivabradine sulfate judged by X-ray and DSC patterns.” for “Yield: 90.5%.”
"HPLC analysis result, 60° C. ([1]; Time 0 day, hydrochloride)","HPLC analysis result, 60° C. ([1]; Time 5 days, hydrochloride)","HPLC analysis result, 60° C. ([1]; Time 10 days, hydrochloride)","HPLC analysis result, RH90% ([1]; Time 0 day, hydrochloride)","HPLC analysis result, RH90% ([1]; Time 5 days, hydrochloride)","HPLC analysis result, RH90% ([1]; Time 10 days, hydrochloride)","HPLC analysis result, Light ([1]; Time 0 day, hydrochloride)","HPLC analysis result, Light ([1]; Time 5 days, hydrochloride)","HPLC analysis result, Light ([1]; Time 10 days, hydrochloride)",SMILES,further results
99.56%,98.74%,99.04%,99.56%,99.03%,98.61%,99.56%,97.45%,94.91%,"COc1cc2c(cc1OC)CC(=O)N(CCCN(C)C[C@H]1Cc3cc(OC)c(OC)cc31)CC2 [Ivabradine hydrochloride 20080908, Ivabradine hydrochloride]",
99.55%,99.31%,99.12%,99.55%,99.10%,98.42%,99.55%,98.88%,98.07%,"COc1cc2c(cc1OC)CC(=O)N(CCCN(C)C[C@H]1Cc3cc(OC)c(OC)cc31)CC2 [Ivabradine hydrochloride 20080911, Ivabradine hydrochloride]",
99.57%,99.36%,99.05%,99.57%,99.20%,98.91%,99.57%,99.29%,98.87%,"COc1cc2c(cc1OC)CC(=O)N(CCCN(C)C[C@H]1Cc3cc(OC)c(OC)cc31)CC2 [Ivabradine hydrochloride 20080912, Ivabradine hydrochloride]",
99.54%,99.50%,99.46%,99.54%,99.23%,99.00%,99.54%,99.47%,99.42%,"COc1cc2c(cc1OC)CC(=O)N(CCCN(C)C[C@H]1Cc3cc(OC)c(OC)cc31)CC2 [Ivabradine sulfate 20080618, Ivabradine hydrochloride]",
,,,,,,,,,"COc1cc2c(cc1OC)CC(=O)N(CCCN(C)C[C@H]1Cc3cc(OC)c(OC)cc31)CC2 [Ivabradine sulfate 20080922, Ivabradine sulfate]","pH of the Ivabradine sulfate aqueous [2]: about 1.8; HPLC analysis result, 60° C. ([1]; Time 0 day): 99.46%; HPLC analysis result, 60° C. ([1]; Time 5 days): 99.42%; HPLC analysis result, 60° C. ([1]; Time 10 days): 99.40%; HPLC analysis result, RH90% ([1]; Time 0 day): 99.46%; HPLC analysis result, RH90% ([1]; Time 5 days): 99.28%; HPLC analysis result, RH90% ([1]; Time 10 days): 99.19%; HPLC analysis result, Light ([1]; Time 0 day): 99.46%; HPLC analysis result, Light ([1]; Time 5 days): 99.42%; HPLC analysis result, Light ([1]; Time 10 days): 99.39%; stability compared with the α-form crystal of Ivabradine hydrochloride ([1]; under high moisture conditions): more stable; stability compared with the α-form crystal of Ivabradine hydrochloride ([1]; under the light and heat condition): similar; stability compared with the polymorphism or mixed crystal of Ivabradine hydrochloride from acetonitrile, ethyl acetate, acetone ([1]; under various conditions): improved significantly"
